Measurements as given in patent publication US20100029615A1, “BENZIMIDAZOLE DERIVATIVES” (priority 2006, published 2010).
Structures can show the parent of a compound that is named as a salt.

Biological target: T1, SMO (Mus musculus, UniProt P56726)
T1 construct: endogenous in cells; host or cells: C3H10T1/2 (ATCC #CCL-226)
Assay: Smoothened (SMO)/Sonic Hedgehog (SHh) Transient Transcriptional Activation Assay (Gli-luciferase reporter in C3H10T1/2 cells)
Type: cell-based, murine
Settings: 2 uM test compound, SHh 250 ng/ml, 20 hrs
How it was run: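 C3H10T1/2 cells transiently transfected with a 10× murine Gli-responsive firefly luciferase reporter plus pEGFP, serum-starved 20 h in 0.5% calf serum, then treated with compounds (2 uM–2 nM final) and 250 ng/ml recombinant human SHh for 20 h at 37 °C. Read-out: Dual-Glo luminescence.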

T1 sequence (P56726 33-793): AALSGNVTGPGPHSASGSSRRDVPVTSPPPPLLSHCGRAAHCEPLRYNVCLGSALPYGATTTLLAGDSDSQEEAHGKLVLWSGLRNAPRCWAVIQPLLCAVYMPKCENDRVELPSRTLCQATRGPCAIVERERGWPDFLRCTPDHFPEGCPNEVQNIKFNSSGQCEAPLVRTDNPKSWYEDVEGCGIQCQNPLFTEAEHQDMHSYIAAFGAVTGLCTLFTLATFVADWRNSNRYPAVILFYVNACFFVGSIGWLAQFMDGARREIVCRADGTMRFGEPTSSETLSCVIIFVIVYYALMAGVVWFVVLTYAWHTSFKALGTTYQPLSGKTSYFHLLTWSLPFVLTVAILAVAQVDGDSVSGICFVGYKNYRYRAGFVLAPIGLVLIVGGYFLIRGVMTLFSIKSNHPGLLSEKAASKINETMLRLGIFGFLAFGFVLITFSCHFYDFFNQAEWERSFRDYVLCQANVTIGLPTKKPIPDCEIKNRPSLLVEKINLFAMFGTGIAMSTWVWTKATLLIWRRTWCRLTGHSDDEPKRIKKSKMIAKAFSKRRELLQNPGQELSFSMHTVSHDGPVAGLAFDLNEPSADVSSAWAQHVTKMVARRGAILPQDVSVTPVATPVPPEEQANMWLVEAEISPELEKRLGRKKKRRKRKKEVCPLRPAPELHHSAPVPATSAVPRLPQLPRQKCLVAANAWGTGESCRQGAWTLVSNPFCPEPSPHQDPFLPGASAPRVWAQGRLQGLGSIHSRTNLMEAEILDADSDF

| SMO % inhibition at 2 uM | Molecule |
| --- | --- |
| 103% | N-(3-(5-Cyano-1-methyl-1H-benzo[d]imidazol-2-yl)cyclohexyl]-2,3-dihydrobenzo[b][1,4]dioxine-6-carboxamide and N-(3-(6-Cyano-1-methyl-1H-benzo[d]imidazol-2-yl)cyclohexyl]-2,3-dihydrobenzo[b][1,4]dioxine-6-carboxamide [Example 20] |

Same assay, conditions: 2 μM test compound, SHh 250 ng/ml, 20 hrs

| SMO CELL % INHIBITION @ 2 μM | Molecule |
| --- | --- |
| 100% | O=C(Cn1ccc2sccc2c1=O)NC1CCCC(c2nc3ccccc3[nH]2)C1 (centres unmarked) [Example 128, N-[3-(1H-benzimidazol-2-yl)cyclohexyl]-2-(4-oxothieno[3,2-c]pyridin-5(4H)-yl)acetamide triflouroacetate] |

Same assay, conditions: 2 μM test compound, SHh 250 ng/ml, 20 hrs, HCl, 2 µM

| SMO CELL % INHIBITION @ 2 μM | Molecule |
| --- | --- |
| 102.05% | O=C(N[C@@H]1CCC[C@H](c2nc3ccccc3[nH]2)C1)c1ccc2c(c1)CCCO2 [Example 266, N-[(1R,3S)-3-(1H-benzimidazol-2-yl)cyclohexyl] chromane-6-carboxamide HCl] |

Same assay, conditions: C3H 10T1/2, 2 uM test compound, SHh 250 ng/ml, 20 hrs, read-out: SMO % inhibition at 2 uM

| inhibition at 2 µM | Molecule |
| --- | --- |
| 96% | COc1cc(OC)cc(C(=O)NC2CCCC(c3nc4cc(NC(=O)C(C)C)ccc4[nH]3)C2)c1 (centres unmarked) [Example 10, N-(3-(5-Isobutyramido-1H-benzo[d]imidazol-2-yl)cyclohexyl)-3,5-dimethoxybenzamide] |
| 103% | COc1cc(OC)cc(C(=O)NC2CCCC(c3nc4ccc(Br)cc4[nH]3)C2)c1 (centres unmarked) [Example 17, N-(3-(5-Bromo-1H-benzo[d]imidazol-2-yl)cyclohexyl)-3,5-dimethoxybenzamide] |
| 94% | N#CCCn1c(C2CCCC(NC(=O)c3ccc4c(c3)OCCO4)C2)nc2ccccc21 (centres unmarked) [Example 15, N-(3-(1-(2-Cyanoethyl)-1H-benzo[d]imidazol-2-yl)cyclohexyl)-2,3-dihydrobenzo[b][1,4]dioxine-6-carboxamide] |
| 103% | Cc1ccc2[nH]c(C3CCCC(NC(=O)c4ccc5c(c4)OCCO5)C3)nc2c1 (centres unmarked) [Example 28, N-(3-(5-Methyl-1H-benzo[d]imidazol-2-yl)cyclohexyl]-2,3-dihydrobenzo[b][1,4]dioxine-6-carboxamide] |

Same assay, conditions: C3H 10T1/2, 2 μM test compound, SHh 250 ng/ml, 20 hrs, read-out: SMO CELL % INHIBITION @ 2 μM

| inhibition at 2 µM | Molecule |
| --- | --- |
| 105% | O=C(N[C@@H]1CCC[C@H](c2nc3cc(C(F)(F)F)ccc3[nH]2)C1)c1ccc2c(c1)CCN(CC1CC1)C2 [Example 295] |
| 92.6% | O=C(NC12CCCC(c3nc4ccccc4[nH]3)(C1)C2)c1ccc2c(c1)CCCO2 [Example 279, N-[5-(1H-benzimidazol-2-yl)bicyclo[3.1.1]hept-1-yl]chromane-6-carboxamide] |
| 110% | COc1cc(OC)cc(C(=O)N[C@@H]2CCC[C@H](c3nc4ccc(C(F)(F)F)cc4[nH]3)C2)c1 [Example 170, 3,5-dimethoxy-N-{(1R,3S)-3-[6-(trifluoromethyl)-1H-benzimidazol-2-yl]cyclohexyl} benzamide HCl] |
| 97.1% | [N-]=[N+]=Nc1c(F)c(F)c(C(=O)NC23CCCC(c4nc5cc(C(F)(F)F)ccc5[nH]4)(C2)C3)c(F)c1F [Example 302, 4-azido-2,3,5,6-tetrafluoro-N-{5-[5-(trifluoromethyl)-1H-benzimidazol-2-yl]bicyclo[3.1.1]hept-1-yl}benzamide] |
| 50% | Cc1nc2cc(C(=O)N[C@@H]3CCC[C@H](c4nc5ccccc5[nH]4)C3)ccc2[nH]1 [Example 197, N-[(1R,3S)-3-(1H-benzimidazol-2-yl)cyclohexyl]-2-methyl-1H-benzimidazole-5-carboxamide triflouroacetate] |
| 87% | O=C(NC1CCCC(c2nc3ccccc3[nH]2)C1)c1ccc2[nH]cnc2c1 (centres unmarked) [Example 60, N-[3-(1H-benzimidazol-2-yl)cyclohexyl]-1H-benzimidazole-5-carboxamide HCl] |
| 106% | Cc1ccc2nc([C@H]3CCC[C@@H](NC(=O)c4ccc5c(c4)OCCO5)C3)[nH]c2c1 [Example 168, N-[(1R,3S)-3-(6-methyl-1H-benzimidazol-2-yl)cyclohexyl]-2,3-dihydro-1,4-benzodioxine-6-carboxamide HCl] |
| 48% | O=C(NC1CCCC(c2nc3ccccc3[nH]2)C1)C1CCCCC1 (centres unmarked) [Example 57, N-(3-(1H-benzo[d]imidazol-2-yl)cyclohexyl) cyclohexanecar-boxamide HCl] |
| 96% | O=C(CCC(=O)c1ccccc1)NC1CCCC(c2nc3ccccc3[nH]2)C1 (centres unmarked) [Example 89, N-[3-(1H-benzimidazol-2-yl)cyclohexyl]-4-oxo-4-phenylbutanamide triflouroacetate] |
| 83% | COc1ccc2cc(C(=O)NC3CCCC(c4nc5ccccc5[nH]4)C3)n(C)c2c1 (centres unmarked) [Example 118, N-[3-(1H-benzimidazol-2-yl)cyclohexyl]-6-methoxy-1-methyl-1H-indole-2-carboxamide triflouroacetate] |
| 84.7% | O=C(NC12CCCC(c3nc4cc(C(F)(F)F)ccc4[nH]3)(C1)C2)c1ccc2c(c1)CCCO2 [Example 276, N-{5-[5-(trifluoromethyl)-1H-benzimidazol-2-yl]bicyclo[3.1.1]hept-1-yl}chromane-6-carboxamide] |
| 104% | O=C(N[C@@H]1CCC[C@H](c2nc3ccccc3[nH]2)C1)c1cc2cc(Cl)ccc2o1 [Example 181, N-[(1R,3S)-3-(1H-benzimidazol-2-yl)cyclohexyl]-5-chloro-1-benzofuran-2-carboxamide triflouroacetate] |
| 51% | O=C(NC1CCCC(c2nc3ccccc3[nH]2)C1)c1ccco1 (centres unmarked) [Example 56, N-[3-(1H-benzimidazol-2-yl)cyclohexyl]-2-furamide HCl] |
| 101% | O=C(NC1CCCC(c2nc3ccc(C(F)(F)F)cc3[nH]2)C1)c1ccc2c(c1)OCCO2 (centres unmarked) [Example 84, N-{3-[6-(trifluoromethyl)-1H-benzimidazol-2-yl]cyclohexyl}-2,3-dihydro-1,4-benzodioxine-6-carboxamide-HCl] |
| 72% | COc1ccc(C(=O)NC2CCCC(c3nc4ccccc4[nH]3)C2)cc1 (centres unmarked) [Example 62, N-[3-(1H-benzimidazol-2-yl)cyclohexyl]-4-methoxybenz-amide HCl] |
| 107% | COc1ccc2nc([C@H]3CCC[C@@H](NC(=O)c4ccc5c(c4)OCCO5)C3)[nH]c2c1 [Example 180, N-[(1R,3S)-3-(6-methoxy-1H-benzimidazol-2-yl)cyclohexyl]-2,3-dihydro-1,4-benzodioxine-6-carboxamide HCl] |
| 106% | O=C(N[C@@H]1CCC[C@H](c2nc3ccc(Br)cc3[nH]2)C1)c1ccc2c(c1)OCCO2 [Example 224, N-[(1R,3S)-3-(6-bromo-1H-benzimidazol-2-yl)cyclohexyl]-2,3-dihydro-1,4-benzodioxine-6-carboxamide HCl] |
| 100% | CC(C)(C)c1ccc2nc(C3CCCC(NC(=O)c4ccc5c(c4)OCCO5)C3)[nH]c2c1 (centres unmarked) [Example 78, N-[3-(6-tert-butyl-1H-benzimidazol-2-yl)cyclohexyl]-2,3-dihydro-1,4-benzodioxine-6-carboxamide HCl] |
| 52% | CC(=O)c1ccc(OCC(=O)NC2CCCC(c3nc4ccccc4[nH]3)C2)cc1 (centres unmarked) [Example 157, 2-(4-acetylphenoxy)-N-[3-(1H-benzimidazol-2-yl)cyclohexyl] acetamide triflouroacetate] |
| 54% | O=C(NC1CCCC(c2nc3ccccc3[nH]2)C1)c1ccc2snnc2c1 (centres unmarked) [Example 161, N-[3-(1H-benzimidazol-2-yl)cyclohexyl]-1,2,3-benzothiadiazole-5-carboxamide triflouroacetate] |
| 110% | O=C(N[C@@H]1CCC[C@H](c2nc3ccc(Cl)cc3[nH]2)C1)c1ccc2c(c1)OCCO2 [Example 178, N-[(1R,3S)-3-(6-chloro-1H-benzimidazol-2-yl)cyclohexyl]-2,3-dihydro-1,4-benzodioxine-6-carboxamide HCl] |
| 85% | O=C(N[C@@H]1CCC[C@H](c2nc3ccccc3[nH]2)C1)c1ccc2c(c1)CCO2 [Example 198, N-[(1R,3S)-3-(1H-benzimidazol-2-yl)cyclohexyl]-2,3-dihydro-1-benzofuran-5-carboxamide triflouroacetate] |
| 101% | COc1ccc(C(=O)NC2CCCC(c3nc4ccccc4[nH]3)C2)cc1Cl (centres unmarked) [Example 59, N-[3-(1H-benzimidazol-2-yl)cyclohexyl]-3-chloro-4-methoxybenz-amide HCl] |
| 109% | COc1cc(OC)cc(C(=O)N[C@@H]2CCC[C@H](c3nc4ccccc4[nH]3)C2)c1 [Example 166, N-[(1R,3S)-3-(1H-benzimidazol-2-yl)cyclohexyl]-3,5-dimethoxybenz-amide HCl] |
| 93.2% | [N-]=[N+]=Nc1ccc(C(=O)NC23CCCC(c4nc5cc(C(F)(F)F)ccc5[nH]4)(C2)C3)cc1 [Example 273, 4-azido-N-{5-[5-(trifluoromethyl)-1H-benzimidazol-2-yl]bicyclo[3.1.1]hept-1-yl}benzamide] |
| 61% | CCn1nc(C(C)C)cc1C(=O)NC1CCCC(c2nc3ccccc3[nH]2)C1 (centres unmarked) [Example 146, N-[3-(1H-benzimidazol-2-yl)cyclohexyl]-1-ethyl-3-isopropyl-1H-pyrazole-5-carboxamide triflouroacetate] |
| 96% | O=C(N[C@@H]1CCC[C@H](c2nc3ccccc3[nH]2)C1)c1cnc2c(c1)OCCO2 [Example 243, N-((1R,3S)-3-(1H-benzo[d]imidaz-ol-2-yl)cyclohexyl)-2,3-dihydro-[1,4]dioxino[2,3-b]pyridine-7-carboxamide] |
| 100% | O=C(Cn1ccc2sccc2c1=O)NC1CCCC(c2nc3ccccc3[nH]2)C1 (centres unmarked) [Example 127, N-[3-(1H-benzimidazol-2-yl)cyclohexyl]-2-(4-oxothieno[3,2-c]pyridin-5(4H)-yl)acetamide HCl] |
